BindingDB's records for doi:10.7270/Q2CN728N (Nmmlsc, 2008)

Molecular target: T1, Bcl-2-related protein A1 (Homo sapiens, UniProt Q16548)
T1 sequence (Q16548 whole entry): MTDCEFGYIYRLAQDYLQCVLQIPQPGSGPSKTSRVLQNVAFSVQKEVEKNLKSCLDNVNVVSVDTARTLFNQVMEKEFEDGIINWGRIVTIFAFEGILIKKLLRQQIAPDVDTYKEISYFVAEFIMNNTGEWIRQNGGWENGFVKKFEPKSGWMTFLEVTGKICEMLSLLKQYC
Assay: Bfl-1/Bim complex disruptors – biochemical, multiplexed, bead-based flow cytometry, dose response (AID 1320)
Settings: inactive by the depositor's call; pH 7.4; 4 °C

Row | SMILES | EC50 [µM]
1 | O=C(Nc1ccc(N2CCOCC2)cc1)Nc1ccc2nc(-c3ccco3)c(-c3ccco3)nc2c1 [N-(2,3-di-2-furyl-6-quinoxalinyl)-N'-[4-(4-morpholinyl)phenyl]urea] | 19.5
2 | Cc1ccc(O)c(NC2=C(Cl)C(=O)N(Cc3ccccc3)C2=O)c1 [1-benzyl-3-chloro-4-(2-hydroxy-5-methylanilino)pyrrole-2,5-dione] | 13.8
3 | CCCC(=O)OCCNc1cc(Sc2nccn2C)c2nonc2c1[N+](=O)[O-] [MLS000584441] | 18.1
4 | O=C1c2ccccc2-c2onc3ccc(N4CCCC4)c1c23 [SMR000279741] | 24.8
5 | S=c1[nH]cc(-c2ccccc2)n1-c1ccccc1Cl [MLS000417182] | 2.23
6 | CCN(CC)c1ccc(NC(=O)c2ccccc2Br)cc1S(=O)(=O)Nc1ccccc1OC | 5.4
7 | N#Cc1ccc(/N=c2/ssnc2Cl)cc1 [SMR000130044] | 67.5
8 | Clc1nc(NCc2cccnc2)nc(N2CCOCC2)n1 [MLS000121154] | 30.8
9 | Nc1ccccc1/N=c1/ssnc1Cl [N-[(5Z)-4-chloro-5H-1,2,3-dithiazol-5-ylidene]benzene-1,2-diamine] | 4.72
10 | O=C(Nc1ccc2nc(-c3ccco3)c(-c3ccco3)nc2c1)NC1CC1 [SMR000118524] | 3.9
11 | CC(C)CN1C(=O)/C(=C/c2ccco2)NC1=S [(5Z)-5-(2-furanylmethylidene)-3-(2-methylpropyl)-2-sulfanylidene-4-imidazolidinone] | 11
12 | CCOc1cccc(CNc2ccc(O)cc2)c1OCc1ccccc1Cl [MLS000580486] | 1.61
13 | CCOC(=O)c1sc(N)c(C(=O)Nc2ccccc2OC)c1C [5-amino-4-[(2-methoxyanilino)-oxomethyl]-3-methyl-2-thiophenecarboxylic acid ethyl ester] | 5.66
14 | CCCCNc1[nH]c(=S)nc2cc(OC)c(OC)cc12 [MLS000520261] | 17.3
15 | CCN1C(=O)/C(=C\C=C2/C=CC=CN2CC)SC1=S [SMR000225150] | 4.01
16 | O=C(/C=C/c1ccc(-c2ccccc2[N+](=O)[O-])o1)c1ccccc1 | 2.61
17 | COc1cc(OC)c([N+](=O)[O-])cc1[CH+][N-]NC(=O)c1ccncc1 [SMR000306621] | 42.3

Same assay, conditions: pH 7.4; 4 °C

Row | SMILES | EC50 [µM]
18 | O=c1[nH]c(O)c(Cc2ccc(-c3cc(Cl)ccc3[N+](=O)[O-])o2)c(=O)[nH]1 | 1.24
19 | CCC(/C=C1\Sc2ccc(OC)cc2N1CCO)=C\c1sc2ccc(OC)cc2[n+]1CCO | 20.3
20 | COC(=O)c1c(C(=O)OC)c2cccc3cc(-c4ccccc4)c4ccc1c4n32 [SMR000161417] | 1.12
21 | Cc1ccc(-c2cc(-c3ccc(F)cc3)c(C#N)c(N)n2)o1 | 5.2
22 | COc1ccc2nc(-c3ccco3)c(-c3ccco3)nc2c1 [2,3-di-2-furyl-6-methoxyquinoxaline] | 4.93
23 | COc1ccc(CCNC(=O)c2ccc3nc(-c4ccco4)c(-c4ccco4)nc3c2)cc1OC [N-[2-(3,4-dimethoxyphenyl)ethyl]-2,3-di-2-furylquinoxaline-6-carboxamide] | 4.3
24 | C#CCn1cc(C=C2C(=O)c3ccccc3C2=O)c2ccccc21 [SMR000196125] | 9.57
25 | N#Cc1cc(-c2ccccc2)nn1-c1ccccc1 | 2.02
26 | O=c1[nH]c2ccc(N=Cc3c(O)ccc4cc(Br)ccc34)cc2[nH]1 [SMR000171789] | 4.46
27 | CCC(=O)OCCNc1cc(Sc2nc3ccccc3s2)c2nonc2c1[N+](=O)[O-] [SMR000131460] | 0.08
28 | Cc1c(N=C2C(=O)N(c3ccccc3)C(=O)C2Cl)c(=O)n(-c2ccccc2)n1C (configuration not stated) [3-chloranyl-4-[(1,5-dimethyl-3-oxidanylidene-2-phenyl-pyrazol-4-yl)amino]-1-phenyl-pyrrole-2,5-dione] | 15.4
29 | CC(=O)OCCCNc1cc(Sc2nc3ccccc3s2)c2nonc2c1[N+](=O)[O-] [MLS000521052] | 0.08
30 | c1coc(C2=Nc3cccc4cccc(c34)N2)c1 [2-(2-furanyl)-1H-perimidine] | 6.32
31 | O=C(NCCCO)Nc1ccc2nc(-c3ccco3)c(-c3ccco3)nc2c1 [1-[2,3-bis(2-furanyl)-6-quinoxalinyl]-3-(3-hydroxypropyl)urea] | 1.25
32 | Cc1ccc(-c2nc(N3CCOCC3)s[n+]2-c2ccccc2)cc1 [SMR000225370] | 0.02
33 | O=C(Nc1ccccc1)c1ccc2nc(-c3ccco3)c(-c3ccco3)nc2c1 [2,3-di-2-furyl-N-phenyl-6-quinoxalinecarboxamide] | 7.56
34 | Clc1ccc2c(N=NCc3ccccc3Br)ccnc2c1 [MLS000336087] | 12.2
35 | O=C(c1ccccc1)c1ccc2nc(-c3ccco3)c(-c3ccco3)nc2c1 | 9.94

Row | SMILES | EC50 [µM]
36 | COc1cc(/C=C2\CC/C(=C\c3cc(OC)c(O)c(OC)c3)C2=O)cc(OC)c1O [(2E,5E)-2,5-bis[(4-hydroxy-3,5-dimethoxyphenyl)methylidene]cyclopentan-1-one] | 3.9
37 | c1ccc(Nc2cccc(Nc3ccccc3)n2)cc1 [N,N'-diphenyl-2,6-pyridinediamine] | 1.17
38 | CCC(=O)N(CC)C1C(=O)C(=O)c2ccccc2C1=O (configuration not stated) [N-ethyl-N-(1-hydroxy-3,4-dioxo-2-naphthalenyl)propanamide] | 0.08
39 | CCN(CC)S(=O)(=O)c1cccc(C(=O)NN=Cc2ccc(O)c(O)c2O)c1 | 6.41
40 | O=C(Nc1cccc(C(F)(F)F)c1)c1ccc2nc(-c3ccco3)c(-c3ccco3)nc2c1 [SMR000142217] | 2.96
41 | CN=c1scc(-c2cccs2)n1N=Cc1ccc(O)c(O)c1O [SMR000242177] | 5.71
42 | COc1ccccc1NC1=C(NC(C)=O)C(=O)c2ccccc2C1=O [N-[3-(2-methoxyanilino)-1,4-dioxonaphthalen-2-yl]acetamide] | 1.41
43 | O=C(NCc1ccccc1)c1ccc2nc(-c3ccco3)c(-c3ccco3)nc2c1 [2,3-bis(furan-2-yl)-N-(phenylmethyl)quinoxaline-6-carboxamide] | 3.06
44 | CC(=O)c1ccc(NC(=O)c2ccc3nc(-c4ccco4)c(-c4ccco4)nc3c2)cc1 [N-(4-acetylphenyl)-2,3-di-2-furyl-6-quinoxalinecarboxamide] | 2.34
45 | CNC(CC(=O)c1ccc([N+](=O)[O-])cc1)C(Cl)(Cl)Cl (configuration not stated) [4,4,4-Trichloro-3-methylamino-1-(4-nitro-phenyl)-butan-1-one] | 0.47
46 | CCOC(=O)C1=C(Cc2ccc(OC)cc2)C(=O)c2ccccc2C1=O [SMR000136995] | 5.04
47 | O=[N+]([O-])c1ccc(N2CCN(c3ccc(O)cc3)CC2)c(Cl)c1 [MLS000374649] | 1.77
48 | Cc1c(N=C2C(=O)N(c3ccccc3Cl)C(=O)C2Cl)c(=O)n(-c2ccccc2)n1C (configuration not stated) | 6.04
49 | Cc1nnc(Sc2cc(NCCO)c([N+](=O)[O-])c3nonc23)s1 [2-[[7-[(5-methyl-1,3,4-thiadiazol-2-yl)thio]-4-nitro-2,1,3-benzoxadiazol-5-yl]amino]ethanol] | 0.52
50 | Oc1ccc(NCc2ccccc2OCc2ccccc2)cc1 [SMR000231540] | 1.12
51 | COc1cc(/N=c2/ssnc2Cl)c(OC)cc1Cl [SMR000130043] | 6.53
52 | Cn1c(=O)c(C(=O)COC(=O)c2cc(-c3ccco3)nc3ccccc23)c(N)n(Cc2ccccc2)c1=O [[2-(6-amino-1-benzyl-3-methyl-2,4-dioxopyrimidin-5-yl)-2-oxoethyl] 2-(furan-2-yl)quinoline-4-carboxylate] | 1.77
